# Measurements as given in US9371351B2, “Glycomimetics as Pseudomonas aeruginosa lectin inhibitors” (priority 2012, dated 2016).
# Read-outs that look alike come from different tables or passages of the source.
# Legend:
# LecB [1] = molecular target: T1, LecB (Pseudomonas aeruginosa, UniProt Q9HYN5); test: biochemical; type: binding
# Source text: (§1) In this assay format, the displacement of a fluorescently-labeled reporter ligand bound to the receptor by an inhibitor can be measured by mixing protein, inhibitor and reporter ligand in a given buffer system.
# LecB [2] = molecular target: T1, LecB; details: LecB and papain treated sheep erythrocytes
# Source text: (§2) This agglutination could then be disrupted by addition of inhibitors of LecB.
# (§3) For the yeast agglutination, PBS-washed S. cerevisiae strain ss328 was used instead of sheep red blood cells, without papain treatment.
# LecB [3] = molecular target: T1, LecB; test: biochemical; type: binding; details: IC50 relative to Me-α-Man; below 1 = stronger ligand than Me-α-Man
# Experimental: A LecB competition assay was carried out by a novel fluorescence polarization assay developed by the inventors of the present invention. To date, an enzyme-linked lectin assay (ELLA) is widely used for the evaluation in screening of the binding potential of ligands to LecB. This allows the evaluation of molecules over a broad affinity range, including monovalent ligands and oligomeric dendrimers thereof. ELLAs have been developed based on enzyme-linked immunosorbent assays (ELISA). […] Furthermore, the current ELLA protocol involves either a surface immobilization of LecB or a covalent modification of the lectin, which could interfere with ligand binding. Consequently, hits from the ELLA are usually further characterized by direct measurement of the binding process of the ligand with the native, unmodified protein using microcalorimetry, requiring large amounts of protein.
# as §1
# Similar conditions were applied, but the protein concentration was fixed at 150 nM. […] The resulting sigmoidal data points on the logarithmic inhibitor concentration scale were used to fit a one-site inhibition model and obtain IC50 values.
# After addition of the reagents, the microtiter plates were centrifuged at 800 rpm for 1 min at 23° C. and incubated for 6 h at room temperature. The fluorescence was measured on a Tecan […] F500 plate reader (Tecan Austria GmbH) with excitation filters at 485 nm and emission filters at 535 nm in black 384-well microtiter plates (Greiner Bio-One). The G-factor was set on 0.92154 and the gain to 80. The measured intensities were reduced by buffer values. The data were analyzed with Graphpad Prism 5 and fitted according to the four parameter variable slope model.
# LecB [4] = molecular target: T1, LecB; details: LecB 13 μg/mL and S. cerevisiae
# Source text: as §2, §3
# LecB [5] = molecular target: T1, LecB; test: Binding thermodynamics to LecB by isothermal calorimetry; details: average of two measurements
# LecB [6] = molecular target: T1, LecB; details: known value, background; cited from earlier work
# T1 sequence (Q9HYN5 entry or part of it): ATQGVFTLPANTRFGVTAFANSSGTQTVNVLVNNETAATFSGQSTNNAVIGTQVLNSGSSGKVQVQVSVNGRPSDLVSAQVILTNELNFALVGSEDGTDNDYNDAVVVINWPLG
Compound,inhibited agglutination at (concentration) (LecB [2]),inhibition of agglutination at (concentration) (LecB [4]),TΔS (LecB [5]),ΔH (LecB [5]),also measured
"CC1OC(OCCNC(=S)Nc2ccc(-c3c4ccc(=O)cc-4oc4cc(O)ccc34)c(C(=O)O)c2)C(O)C(O)C1O (mixture of isomers) [reporter ligand 3, N-(fluorescein-5-yl)-N′-(α-L-fucopyranosylethylen)-thiocarbamide]",,,,,EC50 (LecB [1]): 697 nM
"CO[C@H]1O[C@H](CNC(=O)/C=C/c2ccccc2)[C@@H](O)[C@H](O)[C@@H]1O [11a, Methyl 6-(cinnamido)-6-deoxy-α-D-mannopyranoside]",23 µM,197 µM,3.4 kcal/mol,-2.9 kcal/mol,rIC50 (MeMan) (LecB [3]): 0.3
"CC(=O)N[C@H]1C(O)O[C@H](CO)[C@@H](O[C@@H]2O[C@@H](C)[C@@H](O)[C@@H](O)[C@@H]2O)[C@@H]1O[C@@H]1O[C@H](CO)[C@H](O)[C@H](O)[C@H]1O (stereo partly drawn) [Lewis^a trisaccharide, α-Fuc1-4(βGal1-3)-GlcNAc]",,,,,Kd (LecB [6]): 210 nM
"CO[C@H]1O[C@H](CO)[C@@H](O)[C@H](O)[C@@H]1O [Me-α-D-Man, methyl α-D-mannopyranoside, reference compound]",113 µM,444 µM,2.6 kcal/mol,-3.2 kcal/mol,
"O=C1OC2(c3ccc(O)cc3Oc3cc(O)ccc32)c2ccc(NC(=S)NCCO[C@H]3O[C@H](CO)[C@@H](O)[C@H](O)[C@@H]3O)cc21 [reporter ligand 5, N-(fluorescein-5-yl)-N′-(α-D-mannopyranosylethylen)-thiocarbamide]",,,,,"EC50 (LecB [1]; titration of reporter ligand with LecB, fluorescence polarization, read-out: EC50): > 16000 nM"
